Measured values reported in ChEMBL document CHEMBL1201862, “PubChem BioAssay data set” (2004).
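Protocol summary: plate cells (96-well), add compound at 5 concentrations, incubate 48 h, interpolate endpoints linearly. At the GI50, growth is halved.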 The source made the active and inactive calls. No stated cut-off is given here; in the data, active = GI50 up to about 1.1 µM and inactive = higher.

How the values were obtained:
Experiment in all cases: growth of human tumour cells (NCI), 48 h
[1] = system: 786-0
[2] = system: A498
[3] = system: A549
[4] = system: ACHN
[5] = system: BT-549
[6] = system: CAKI-1
[7] = system: CCRF-CEM
[8] = system: COLO 205
[9] = system: DU-145
[10] = system: EKVX
[11] = system: HCC 2998
[12] = system: HCT-116
[13] = system: HCT-15
[14] = system: HL-60
[15] = system: HOP-62
[16] = system: HOP-92
[17] = system: HT-29
[18] = system: Hs-578T
[19] = system: IGROV-1
[20] = system: K562
[21] = system: KM12
[22] = system: LOX IMVI
[23] = system: M14
[24] = system: MCF7
[25] = system: MDA-MB-231
[26] = system: MDA-MB-435
[27] = system: MDA-N
[28] = system: MOLT-4
[29] = system: Malme-3M
[30] = system: NCI-H226
[31] = system: NCI-H23
[32] = system: NCI-H460
[33] = system: NCI-H522
[34] = system: NCI/ADR-RES
[35] = system: OVCAR-3
[36] = system: OVCAR-4
[37] = system: OVCAR-5
[38] = system: OVCAR-8
[39] = system: PC-3
[40] = system: RPMI-8226
[41] = system: RXF 393
[42] = system: SF-268
[43] = system: SF-295
[44] = system: SF-539
[45] = system: SK-MEL-28
[46] = system: SK-MEL-2
[47] = system: SK-MEL-5
[48] = system: SK-OV-3
[49] = system: SN12C
[50] = system: SNB-19
[51] = system: SR
[52] = system: SW-620
[53] = system: T47D
[54] = system: TK-10
[55] = system: U-251
[56] = system: UACC-257
[57] = system: UACC-62
[58] = system: UO-31
[59] = system: SNB-75

With `CN1CCN(CC(=O)Nc2cccc3ccccc23)CC1` the GI50 [1] was > 100 µM (inactive), the GI50 [2] was > 100 µM (inactive) and the GI50 [3] was > 100 µM (inactive). For the same molecule, the GI50 [4] was > 100 µM (inactive), the GI50 [5] was > 100 µM (inactive) and the GI50 [6] was > 100 µM (inactive). For the same molecule, the GI50 [7] was > 100 µM (inactive), the GI50 [8] was > 100 µM (inactive) and the GI50 [9] was > 100 µM (inactive). For the same molecule, the GI50 [10] was > 100 µM (inactive), the GI50 [11] was > 100 µM (inactive) and the GI50 [12] was > 100 µM (inactive). For the same molecule, the GI50 [13] was over 100 µM, the GI50 [14] was > 100 µM (inactive) and the GI50 [15] was > 100 µM (inactive). For the same molecule, the GI50 [16] was > 100 µM (inactive), the GI50 [17] was > 31.6 µM (inactive) and the GI50 [18] was > 100 µM (inactive). The GI50 [19] was > 100 µM (inactive), the GI50 [20] was > 100 µM (inactive) and the GI50 [21] was > 100 µM (inactive). The GI50 [22] was > 100 µM (inactive), the GI50 [23] was > 100 µM (inactive) and the GI50 [24] was > 100 µM (inactive). For the same molecule, the GI50 [25] was > 100 µM (inactive), the GI50 [26] was > 100 µM (inactive) and the GI50 [27] was > 100 µM (inactive). The GI50 [28] was > 100 µM (inactive), the GI50 [29] was > 100 µM (inactive) and the GI50 [30] was > 100 µM (inactive). For the same molecule, the GI50 [31] was > 100 µM (inactive), the GI50 [32] was > 100 µM (inactive) and the GI50 [33] was > 100 µM (inactive). The GI50 [34] was > 100 µM (inactive), the GI50 [35] was > 100 µM (inactive) and the GI50 [36] was > 100 µM (inactive). For the same molecule, the GI50 [37] was > 100 µM (inactive), the GI50 [38] was > 100 µM (inactive) and the GI50 [39] was > 100 µM (inactive). The GI50 [40] was > 100 µM (inactive), the GI50 [41] was > 100 µM (inactive) and the GI50 [42] was > 100 µM (inactive). The GI50 [43] was > 100 µM (inactive), the GI50 [44] was > 100 µM (inactive) and the GI50 [45] was > 100 µM (inactive). For the same molecule, the GI50 [46] was > 100 µM (inactive), the GI50 [47] was > 100 µM (inactive) and the GI50 [48] was > 100 µM (inactive). The GI50 [49] was > 100 µM (inactive), the GI50 [50] was > 100 µM (inactive) and the GI50 [51] was > 100 µM (inactive). The GI50 [52] was > 100 µM (inactive), the GI50 [53] was > 100 µM (inactive) and the GI50 [54] was > 100 µM (inactive). For the same molecule, the GI50 [55] was > 100 µM (inactive), the GI50 [56] was > 100 µM (inactive) and the GI50 [57] was > 100 µM (inactive). For the same molecule, the GI50 [58] was > 100 µM (inactive).

With `CCc1nnc(S)n1/N=C\c1ccc(-c2ccccc2Cl)o1` the GI50 [1] was 30.8 µM (inactive), the GI50 [2] was 36.6 µM (inactive) and the GI50 [3] was 32.6 µM (inactive). For the same molecule, the GI50 [4] was 60.8 µM (inactive), the GI50 [5] was 26.4 µM (inactive) and the GI50 [6] was 45.3 µM (inactive). The GI50 [7] was 27.5 µM (inactive), the GI50 [8] was 31.3 µM (inactive) and the GI50 [9] was 41.3 µM (inactive). For the same molecule, the GI50 [10] was 36.4 µM (inactive), the GI50 [11] was 27.3 µM (inactive) and the GI50 [12] was 23.8 µM (inactive). The GI50 [13] was 28.2 µM, the GI50 [14] was 20.4 µM (inactive) and the GI50 [15] was 90.2 µM (inactive). The GI50 [16] was 33.2 µM (inactive), the GI50 [17] was 33.4 µM (inactive) and the GI50 [18] was 57 µM (inactive). The GI50 [19] was 38.7 µM (inactive), the GI50 [20] was 21.9 µM (inactive) and the GI50 [21] was 28.8 µM (inactive). The GI50 [22] was 23.5 µM (inactive), the GI50 [23] was 33.2 µM (inactive) and the GI50 [24] was 32 µM (inactive). For the same molecule, the GI50 [25] was 42.2 µM (inactive), the GI50 [26] was 21 µM (inactive) and the GI50 [27] was 20.5 µM (inactive). For the same molecule, the GI50 [28] was 17.5 µM (inactive), the GI50 [29] was 55.7 µM (inactive) and the GI50 [30] was 17.5 µM (inactive). For the same molecule, the GI50 [31] was 26.4 µM (inactive), the GI50 [32] was 32.4 µM (inactive) and the GI50 [33] was 24.1 µM (inactive). The GI50 [34] was 22 µM (inactive), the GI50 [35] was 40.6 µM (inactive) and the GI50 [36] was 39.4 µM (inactive). The GI50 [37] was 64.6 µM (inactive), the GI50 [38] was 24.3 µM (inactive) and the GI50 [39] was 37.4 µM (inactive). The GI50 [40] was 20.5 µM (inactive), the GI50 [41] was 38.9 µM (inactive) and the GI50 [42] was 32.1 µM (inactive). The GI50 [43] was 46.2 µM (inactive), the GI50 [44] was 23 µM (inactive) and the GI50 [46] was 30.8 µM (inactive). For the same molecule, the GI50 [47] was 14.3 µM (inactive), the GI50 [48] was 56.9 µM (inactive) and the GI50 [49] was 37.2 µM (inactive). For the same molecule, the GI50 [50] was 45.3 µM (inactive), the GI50 [59] was 28.2 µM (inactive) and the GI50 [51] was 19.6 µM (inactive). For the same molecule, the GI50 [52] was 27.7 µM (inactive), the GI50 [53] was 25.1 µM (inactive) and the GI50 [54] was 43.7 µM (inactive). For the same molecule, the GI50 [55] was 32.3 µM (inactive), the GI50 [56] was 53.5 µM (inactive) and the GI50 [57] was 40.6 µM (inactive). The GI50 [58] was 37.7 µM (inactive).
